The numbers were not newly measured in patent US8648119B2, “Controlled release immunomodulator compositions and methods for the treatment of otic disorders” (Otonomy, Inc., priority 2008, dated 2014), which cites them from elsewhere.

One may read the pIC50 as the negative decadic logarithm of the IC50, by convention in mol/L.

pIC50: −log10 of the molar value.

The subject of data set [1] is patients.
For a further data set, the system named is rat arthritis model. The conditions noted are these: 30 mg/kg.
In data set [2] the test system is mouse collagen-induced arthritis model. The conditions noted are these: 30 mg/kg dose.
The test system of data set [3] is Langerhans' cells or dermal connective tissue. Conditions: in vivo.
In data set [4] the test system is TNF-α production in the LPS-induced human PBMC cells. The conditions noted are these: read-out: IC50 for inhibiting TNF-α production.
The next data set concerns Meniere's disease. Conditions: infusion into the scala tympani.
A further data set has as its system TNF expressing cells. The conditions noted are these: in vitro, in the presence of complement.
For the data set “lymphotoxin (TNF-β)”, the target named is T1, lymphotoxin (TNF-β (Homo sapiens, UniProt P01374)).
T1 sequence (P01374 35-205): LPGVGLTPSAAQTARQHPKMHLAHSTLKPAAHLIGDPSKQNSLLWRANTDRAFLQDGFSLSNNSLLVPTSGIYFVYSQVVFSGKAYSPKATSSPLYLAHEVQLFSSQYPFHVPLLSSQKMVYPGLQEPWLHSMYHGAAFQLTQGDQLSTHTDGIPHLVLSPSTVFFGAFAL

For data set [5], the system named is patients. The conditions noted are these: three phase-III clinical trials.
For data set [6] the following is noted: in vivo.
For data set [7], the system named is TNF-α production in the LPS-induced MonoMac-6 cells. The conditions noted are these: read-out: IC50 for inhibiting TNF-α production.
The target in a further data set is TACE (Homo sapiens, UniProt P78536).
Chain of TACE (P78536 215-824): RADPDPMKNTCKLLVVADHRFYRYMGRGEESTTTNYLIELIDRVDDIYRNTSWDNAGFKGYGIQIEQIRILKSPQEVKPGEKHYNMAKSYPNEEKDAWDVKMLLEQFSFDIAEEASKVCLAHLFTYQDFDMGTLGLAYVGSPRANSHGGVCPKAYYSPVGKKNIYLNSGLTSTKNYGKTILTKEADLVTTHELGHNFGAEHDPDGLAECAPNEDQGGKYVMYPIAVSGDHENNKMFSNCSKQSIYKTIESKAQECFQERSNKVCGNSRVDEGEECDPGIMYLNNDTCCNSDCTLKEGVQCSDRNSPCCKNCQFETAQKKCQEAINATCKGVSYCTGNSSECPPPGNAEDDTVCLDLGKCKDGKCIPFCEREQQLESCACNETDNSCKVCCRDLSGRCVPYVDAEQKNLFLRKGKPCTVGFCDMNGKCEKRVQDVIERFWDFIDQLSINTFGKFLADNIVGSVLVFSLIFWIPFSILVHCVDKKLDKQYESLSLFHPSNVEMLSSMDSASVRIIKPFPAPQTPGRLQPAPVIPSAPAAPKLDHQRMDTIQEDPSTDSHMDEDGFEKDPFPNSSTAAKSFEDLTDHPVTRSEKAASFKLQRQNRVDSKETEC

With etanercept, the “patients experiencing injection site reactions (mild to moderate erythema and/or itching, pain and/or swelling)” value in the data set on patients [1] (systemically treated) is given as “over one-third of patients”.
Take `COc1cccc2nc(-c3cccs3)nc(NN3C(=O)C=C(C)C3=O)c12` [SPC-839]: the paw edema entry in the data set with rat arthritis model is given as “reduces paw edema”.
On to `Cc1ccc2nc(NCCN)c3ncc(C)n3c2c1` [BMS-345541], for which, in data set [2], the severity of disease result is on record as “significantly reduced the severity of disease”.
Turning to `CC[C@@H]1/C=C(\C)C[C@H](C)C[C@H](OC)[C@H]2O[C@@](O)(C(=O)C(=O)N3CCCC[C@H]3C(=O)O[C@H](/C(C)=C/[C@@H]3CC[C@H](Cl)[C@H](OC)C3)[C@H](C)[C@@H](O)CC1=O)[C@H](C)C[C@@H]2OC` [pimecrolimus, (1R,9S,12S,13R,14S,17R,18E,21S,23S,24R,25S,27R)-12-[(1E)-2-{(1R,3R,4S)-4-chloro-3-methoxycyclohexyl}-1-methylvinyl]-17-ethyl-1,14-dihydroxy-23,25-dimethoxy-13,19,21,27-tetramethyl-11,28-dioxa-4-aza-tricyclo[22.3.1.04,9]octacos-18-ene-2,3,10,16-tetraone], the “systemic exposure after topical application” value is listed as “very little, if any, systemic exposure”. In [3], the “atrophy of the skin” value is “do not cause atrophy of the skin” and the “suppression of Langerhans' cells or dermal connective tissue” value is on record as “do not suppress Langerhans' cells or dermal connective tissue”.
In the case of `CC[C@H](C)[C@H](NC(=O)[C@H](CC(C)C)[C@H](C(C)C)N(O)C=O)C(=O)Nc1ccccn1` [GW3333], the negative-log IC50 (pIC50) in [4] was 6.01.
For the compound `Cc1ccccc1C(=O)Nc1ccc(C(=O)N2CCCC(N(C)C)c3ccccc32)cc1` (centres unmarked) [OPC-31260], in the data set on Meniere's disease, the “Meniere's disease symptoms” value is on record as “marked reduction of Meniere's disease symptoms”.
For Adalimumab, the “lysis of TNF expressing cells” value in the data set with TNF expressing cells is on record as “lyses TNF expressing cells in vitro”. The “binding or inactivation of lymphotoxin (TNF-β)” value on lymphotoxin (TNF-β) was “does not bind or inactivate lymphotoxin”. The “patients developing injection site reactions (erythema and/or itching, hemorrhage, pain and/or swelling)” value in the data set with patients [1] (systemic administration) is 20%.
In the case of “onercept: a soluble TNF p55 receptor, TNF binding factor (Serono)”, the “adverse outcome reported in phase-III clinical trials” value with patients [5] was “patients diagnosed with fatal sepsis”.
For the compound `O=C(Nc1cc(Cl)cc2c1[nH]c1cnccc12)c1cccnc1` [PS-1145], the “production of TNF-α” value with LPS-challenged mice is reported as “reduces the production of TNF-α”.
Turning to `C=CC[C@@H]1/C=C(\C)C[C@H](C)C[C@H](OC)[C@H]2O[C@@](O)(C(=O)C(=O)N3CCCC[C@H]3C(=O)O[C@H](/C(C)=C/[C@@H]3CC[C@@H](O)[C@H](OC)C3)[C@H](C)[C@@H](O)CC1=O)[C@H](C)C[C@@H]2OC` (relative stereo) [tacrolimus, [3S-[3R*[E(1S*,3S*,4S*)], 4S*,5R*,8S*,9E,12R*,14R*,15S*,16R*,18S*,19S*,26aR*]]-5,6,8,11,12,13,14,15,16,17,18,19,24,25,26,26a-hexadecahydro-5,19-dihydroxy-3-[2-(4-hydroxy-3-methoxycyclohexyl)-1-methylethenyl]-14,16-dimethoxy-4,10,12,18-tetramethyl-8-(2-propenyl)-15,19-epoxy-3H-pyrido[2,1-39c][1,4]oxaazacyclotricosine-1,7,20,21 (4H,23H)-tetrone monohydrate], the “bioavailability after topical application” value is “less than 0.5%” and the “systemic exposure after topical application” value is given as “very little, if any, systemic exposure”. For the same compound, in data set [3], the “atrophy of the skin” value is reported as “do not cause atrophy of the skin” and the “suppression of Langerhans' cells or dermal connective tissue” value is given as “do not suppress Langerhans' cells or dermal connective tissue”.
Consider `CC(C)C[C@@H](C(=O)N[C@@H](CCCN/C(N)=N/[N+](=O)[O-])C(=O)Nc1nccs1)[C@H](C(C)C)N(O)C=O` [Nitroarginine analog A], for which the oral activity entry in data set [6] was “lacks oral activity”. For the same compound, the negative-log IC50 (pIC50) was 7.47 in data set [7] and 8.40 at TACE.
